From the supplement of paper PMC5844555

Tests used:
Test in all cases: 3' UTR reporter interaction score (median-centred robust z-score of log2 firefly/Renilla activity); higher = less repression of the 3' UTR reporter
Details in all cases: HEK293T; 48 h
MYB = test system: MYB
Outline: (§1)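 The interaction score is based on the log-transformed firefly/Renilla luciferase ratio, scaled as a robust z-score within each plate by median and median absolute deviation and median-centred for each miRNA; more negative scores indicate interaction. It was averaged over at least two independent screens. Readings were taken 48 h after HEK293T cells (10,000/well, 96-well plates) were co-transfected by DharmaFECT Duo with 100 ng firefly luc2P 3' UTR reporter, 20 ng Renilla pRL-TK and 2.5 pmol miRNA mimic.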

MYC = test system: MYC
Outline: as §1

TP53 = test system: TP53
Outline: as §1

RB1 = test system: RB1
Outline: as §1

NOTCH1 = test system: NOTCH1
Outline: as §1

HRAS = test system: HRAS
Outline: as §1

FBXW7 = test system: FBXW7
Outline: as §1

ZEB2 = test system: ZEB2
Outline: as §1

BRCA2 = test system: BRCA2
Outline: as §1

PHOX2B = test system: PHOX2B
Outline: as §1

EZH2 = test system: EZH2
Outline: as §1

PHF6 = test system: PHF6
Outline: as §1

MYCN = test system: MYCN
Outline: as §1

MYT1L = test system: MYT1L
Outline: as §1

Sequence	3' UTR reporter interaction score (MYB)	3' UTR reporter interaction score (MYC)	3' UTR reporter interaction score (TP53)	3' UTR reporter interaction score (RB1)	3' UTR reporter interaction score (NOTCH1)	3' UTR reporter interaction score (HRAS)	3' UTR reporter interaction score (FBXW7)	3' UTR reporter interaction score (ZEB2)	3' UTR reporter interaction score (BRCA2)	3' UTR reporter interaction score (PHOX2B)	3' UTR reporter interaction score (EZH2)	3' UTR reporter interaction score (PHF6)	3' UTR reporter interaction score (MYCN)	3' UTR reporter interaction score (MYT1L)
AGACUUCCCAUUUGAAGGUGGC	0.287	-0.381	-0.0594	0.0148	-0.842	-0.109	0.497	0.705	-0.566	0.285	0.311	1.01	-2.21	0.482
AUCGUGCAUCCUUUUAGAGUGU	0.368	-0.764	-0.802	0.712	-0.741	-1.03	-0.0607	-2.58	-0.461	0.0627	0.0977	2.24	1.14	-0.261
CAUAAAGUAGAAAGCACUAC	-0.0675	0.0993	-0.122	0.941	0.3	-0.266	-0.553	-0.00923	0.352	0.845	-0.0463	-0.673	-0.0538	-0.385
GCGAGGACCCCUCGGGGUCUGAC	0.547	-0.466	0.0903	0.707	-0.131	0.0816	0.437	-0.584	0.357	0.436	-0.18	-0.251	-0.654	-0.47
UUGGUCCCCUUCAACCAGCUGU	0.254	0.174	-1.45	-0.063	-0.968	1.24	1	-0.135	0.152	-0.898	1.28	-1.13	0.117	0.5
CAUGCCUUGAGUGUAGGACCGU	0.293	-1.17	0.524	0.637	-0.883	-0.893	0.998	-1.59	0.421	-1.4	0.42	1.76	-0.364	-1.07
CUAAUAGUAUCUACCACAAUAAA	1.16	-0.306	-0.375	-0.459	0.264	-0.78	0.465	0.675	0.274	0.231	0.167	-0.303	0.604	-0.606
GUCAUACACGGCUCUCCUCUCU	0.607	0.275	-0.0395	-0.0565	0.867	0.779	-0.585	0.639	0.502	-0.585	-0.733	-2.04	-1.89	-0.904
GCCCCUGGGCCUAUCCUAGAA	0.244	-0.282	-0.179	0.411	-0.931	-0.133	0.0138	-0.237	0.566	-0.0536	0.389	2.01	0.221	-0.294
UAAUGCCCCUAAAAAUCCUUAU	-1.05	0.136	-0.124	-0.537	-0.347	-0.275	1.16	-2.81	1.14	0.54	0.868	2.31	-0.732	0.18
CAGUGCAAUGUUAAAAGGGCAU	-1.89	0.265	-0.31	1.55	0.727	-0.0408	0.774	-0.231	-0.00105	0.897	-0.606	0.0914	1.42	-0.334
CAAAGUGCUCAUAGUGCAGGUAG	-1.73	-0.364	0.0738	0.42	1.52	0.757	1	1.98	0.253	1.67	-0.533	0.651	-0.62	-1.37
ACUGGGGGCUUUCGGGCUCUGCGU	0.119	-0.444	0.587	0.988	0.864	-0.439	0.537	1.01	0.135	-0.685	-0.722	2.06	-0.18	0.0192
UGAGAUGAAGCACUGUAGCUCA	0.448	0.59	-0.632	-0.192	0.298	0.321	0.851	0.313	1.09	-0.89	-0.134	-0.896	0.577	-0.193
AGGGCCCCCCCUCAAUCCUGU	0.144	-0.761	-0.172	1.06	-0.584	-0.753	0.757	1.65	0.425	0.177	0.205	0.378	-0.0892	0.617
UUUCCUAUGCAUAUACUUCUUU	0.476	0.151	-0.504	0.265	-2.15	-0.802	0.0806	0.911	0.202	-0.604	-0.62	-0.444	0.517	1.98
GACCUGGACAUGUUUGUGCCCAGU	-0.217	-0.104	-0.242	-0.469	-0.107	-0.318	0.534	2.18	0.214	0.605	-0.0513	0.792	0.492	0.464
UCAGGCUCAGUCCCCUCCCGAU	-1.88	0.0353	0.0121	0.0824	-0.181	-0.122	0.573	1.33	0.841	0.106	0.0569	0.0613	-0.567	-0.304
UUGUACAUGGUAGGCUUUCAUU	1.15	1.21	-0.89	0.635	0.647	0.289	-0.171	-1.84	-0.0352	0.723	0.0583	-1.11	1.27	-0.141
